Experimental data taken from patent publication EP0022634A1, “Acylated indole derivatives, processes for their preparation and pharmaceutical compositions and drugs comprising them” (TEIJIN LIMITED, priority 1979, dated 1981).

How the values were obtained:
[1] = test system: mucous membrane of the stomach; assay: Action of causing trouble to the mucous membrane of the stomach (ulcer index); assay type: in vivo, Male S.D. rats; conditions: general statement on investigations of the present inventors; test not specified
Procedure: Male S.D. rats (7 weeks old) were caused to fact for 24 hours while allowing them to drink water freely. A test compound dissolved in propylene glycol was orally administered to these rats, and these rats were kept while causing them to fast. Then, the rats were knocked out to death, and lesions generated in the stomach were measured in the following manner.
Ten minutes before killing the rats, 1% Evans blue was intravenously injected to the rats in a dose of 0.5 ml/rat to stain their body. Then, the rats were knocked out to death, and the stomack was taken out from each rat. 12 ml of 1% formalin was injected into the stomack to inflate it. The stomach was then dipped for more than 10 minutes in a 1% formalin solution, and fixed. After fixing, the stomach was incised along the glandular portion, and the length of a dye-leaked portion that occurred in the stomach was measured under a solid microscope, and defined as the ulcer index (mm).
For details of the test on the action of causing trouble to the mucous membrane of the stomach, see E. Adami, E. Marazzi-Uberti, and C. Turba, Arch, int. Pharmacadyn., 147, 113 (1964).

platelet aggregation = assay: in vitro platelet aggregation inhibiting activity (sodium arachidonate as aggregating agent); assay type: cell-based, guinea pigs; conditions: general statement on investigations of the present inventors; test not specified

CC(C)c1[nH]c2ccccc2c1C(=O)c1cccnc1 [drawing 4, reference compound]
tendency to induce ulcer formation [1]: unnegligible tendency to induce ulcer formation | action of inhibiting platelet aggregation (platelet aggregation): has an action of inhibiting platelet aggregation
